Target: T1, full-length ATR (Homo sapiens, UniProt Q13535)
T1 construct: Assays are carried out at 25° C. in the presence of 5 nM full-length ATR
Assay: ATR Inhibition Assay (radioactive-phosphate incorporation)
Type: biochemical
Conditions: 5 nM full-length ATR, 10 μM ATP, 800 μM target peptide, 25° C.; read-out: Ki (Ki(app)) for inhibition of ATR
Description: Compounds can be screened for their ability to inhibit ATR kinase using a radioactive-phosphate incorporation assay. Assays are carried out in a mixture of 50 mM Tris/HCl (pH 7.5), 10 mM MgCl2 and 1 mM DTT. Final substrate concentrations are 10 μM [γ-33P]ATP (3 mCi 33P ATP/mmol ATP, Perkin Elmer) and 800 μM target peptide (ASELPASQPQPFSAKKK).
Assays are carried out at 25° C. in the presence of 5 nM full-length ATR. An assay stock buffer solution is prepared containing all of the reagents listed above, with the exception of ATP and the test compound of interest. 13.5 μL of the stock solution is placed in a 96 well plate followed by addition of 2 μL of DMSO stock containing serial dilutions of the test compound (typically starting from a final concentration of 15 μM with 3-fold serial dilutions) in duplicate (final DMSO concentration 7%). The plate is pre-incubated for 10 minutes at 25° C. and the reaction initiated by addition of 15 μL [γ-33P]ATP (final concentration 10 μM).
The reaction is stopped after 24 hours by the addition of 30 μL 0.1M phosphoric acid containing 2 mM ATP. […]
After removing mean background values for all of the data points, Ki(app) data are calculated from non-linear regression analysis of the initial rate data using the Prism software package (GraphPad Prism version 3.0cx for Macintosh, GraphPad Software, San Diego Calif., USA).

T1 sequence (Q13535 whole entry): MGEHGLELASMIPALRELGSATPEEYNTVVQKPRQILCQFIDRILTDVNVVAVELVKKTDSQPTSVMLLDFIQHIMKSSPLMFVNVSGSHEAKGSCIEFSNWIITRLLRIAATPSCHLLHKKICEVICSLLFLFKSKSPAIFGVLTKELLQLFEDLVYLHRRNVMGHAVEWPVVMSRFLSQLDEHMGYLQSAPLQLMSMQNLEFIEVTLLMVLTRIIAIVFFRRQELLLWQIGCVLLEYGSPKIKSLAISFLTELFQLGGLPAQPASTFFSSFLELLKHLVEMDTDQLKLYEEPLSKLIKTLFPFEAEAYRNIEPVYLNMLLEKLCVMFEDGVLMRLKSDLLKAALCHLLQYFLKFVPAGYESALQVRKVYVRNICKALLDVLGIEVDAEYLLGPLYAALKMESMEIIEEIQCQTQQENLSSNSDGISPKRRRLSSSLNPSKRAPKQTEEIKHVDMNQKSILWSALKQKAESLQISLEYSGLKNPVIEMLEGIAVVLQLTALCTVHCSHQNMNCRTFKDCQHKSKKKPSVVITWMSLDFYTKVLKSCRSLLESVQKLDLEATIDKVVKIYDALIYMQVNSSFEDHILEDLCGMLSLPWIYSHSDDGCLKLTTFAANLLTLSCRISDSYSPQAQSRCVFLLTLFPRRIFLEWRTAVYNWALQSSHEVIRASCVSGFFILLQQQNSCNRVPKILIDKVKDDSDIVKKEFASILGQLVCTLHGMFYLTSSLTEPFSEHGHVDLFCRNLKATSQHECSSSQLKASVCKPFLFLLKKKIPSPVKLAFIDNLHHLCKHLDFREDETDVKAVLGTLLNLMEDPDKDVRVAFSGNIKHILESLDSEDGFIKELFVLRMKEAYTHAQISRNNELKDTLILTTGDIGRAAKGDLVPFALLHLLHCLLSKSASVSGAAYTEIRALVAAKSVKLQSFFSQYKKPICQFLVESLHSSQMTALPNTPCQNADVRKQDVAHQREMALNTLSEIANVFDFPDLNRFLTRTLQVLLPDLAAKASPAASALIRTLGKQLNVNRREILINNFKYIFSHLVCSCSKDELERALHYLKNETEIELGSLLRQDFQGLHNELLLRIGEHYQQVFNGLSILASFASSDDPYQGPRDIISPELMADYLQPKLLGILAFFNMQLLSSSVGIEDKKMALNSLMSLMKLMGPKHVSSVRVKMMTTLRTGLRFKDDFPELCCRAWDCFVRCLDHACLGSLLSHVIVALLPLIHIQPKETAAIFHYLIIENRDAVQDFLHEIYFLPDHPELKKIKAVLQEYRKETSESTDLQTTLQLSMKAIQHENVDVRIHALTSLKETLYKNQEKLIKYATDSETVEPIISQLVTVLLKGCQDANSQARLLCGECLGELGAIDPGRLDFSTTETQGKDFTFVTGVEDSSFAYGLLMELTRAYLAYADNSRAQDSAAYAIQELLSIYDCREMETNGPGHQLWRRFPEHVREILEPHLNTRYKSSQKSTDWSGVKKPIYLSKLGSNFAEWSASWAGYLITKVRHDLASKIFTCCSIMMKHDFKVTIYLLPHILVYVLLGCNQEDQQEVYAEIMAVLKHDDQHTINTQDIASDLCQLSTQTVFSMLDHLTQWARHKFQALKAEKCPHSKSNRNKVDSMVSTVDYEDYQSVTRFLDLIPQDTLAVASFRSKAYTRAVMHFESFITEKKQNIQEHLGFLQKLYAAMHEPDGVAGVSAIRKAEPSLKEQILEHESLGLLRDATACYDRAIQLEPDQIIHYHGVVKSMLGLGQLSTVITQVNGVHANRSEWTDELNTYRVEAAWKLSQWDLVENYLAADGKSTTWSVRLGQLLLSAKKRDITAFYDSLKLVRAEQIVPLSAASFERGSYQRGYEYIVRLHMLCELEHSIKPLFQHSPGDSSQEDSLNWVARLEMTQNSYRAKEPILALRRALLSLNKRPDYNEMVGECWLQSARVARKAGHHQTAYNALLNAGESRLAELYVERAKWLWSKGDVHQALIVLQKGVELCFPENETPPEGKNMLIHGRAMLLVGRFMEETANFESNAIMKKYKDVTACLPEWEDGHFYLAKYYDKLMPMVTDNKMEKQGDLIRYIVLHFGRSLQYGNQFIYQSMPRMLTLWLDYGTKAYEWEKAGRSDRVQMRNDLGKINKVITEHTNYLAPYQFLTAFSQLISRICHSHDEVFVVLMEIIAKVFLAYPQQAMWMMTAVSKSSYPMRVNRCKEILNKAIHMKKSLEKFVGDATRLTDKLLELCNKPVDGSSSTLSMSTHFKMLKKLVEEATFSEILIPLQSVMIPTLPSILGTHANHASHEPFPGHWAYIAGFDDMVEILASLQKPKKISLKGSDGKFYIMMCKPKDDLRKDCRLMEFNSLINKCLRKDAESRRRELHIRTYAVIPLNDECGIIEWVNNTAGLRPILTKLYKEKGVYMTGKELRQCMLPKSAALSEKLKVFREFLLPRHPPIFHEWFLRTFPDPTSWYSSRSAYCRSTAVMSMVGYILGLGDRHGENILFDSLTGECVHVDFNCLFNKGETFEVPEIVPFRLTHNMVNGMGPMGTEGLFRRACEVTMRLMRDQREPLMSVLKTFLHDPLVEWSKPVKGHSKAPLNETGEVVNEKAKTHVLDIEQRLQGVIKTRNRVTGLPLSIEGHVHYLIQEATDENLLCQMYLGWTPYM

SMILES | Ki [nM]
Nc1nn2cc(F)cnc2c1C(=O)Nc1cncc(F)c1N1CCC(C(=O)N2CCN(C3COC3)CC2)CC1 [Compound I-1, 2-amino-6-fluoro-N-[5-fluoro-4-[4-[4-(oxetan-3-yl)piperazine-1-carbonyl]-1-piperidyl]-3-pyridyl]pyrazolo[1,5-a]pyrimidine-3-carboxamide] | < 1000
[2H]C1([2H])N(C(=O)C2CCN(c3c(F)cncc3NC(=O)c3c(N)nn4cc(F)cnc34)CC2)C([2H])([2H])C([2H])([2H])N(C2COC2)C1([2H])[2H] [Compound I-3, 2-amino-6-fluoro-N-(5-fluoro-4-(4-(2,2,3,3,5,5,6,6-octadeutero-4-(oxetan-3-yl)piperazine-1-carbonyl)piperidin-1-yl)-3-pyridyl)pyrazolo[1,5-a]pyrimidine-3-carboxamide] | < 1000
